ChEMBL document CHEMBL1687812, “Interplay between drug efflux and antioxidants in Escherichia coli resistance to antibiotics” (2010)
In brackets after ≈: the same amount, converted by molar mass. Activity calls are given as the source filed them. The rule behind the calls is not given here.

What was measured:
Escherichia coli [1] = test: Antibacterial activity against wild type Escherichia coli BW25113; assay type: functional
Escherichia coli [2] = test: Antibacterial activity against tolC deficient Escherichia coli GD100; assay type: functional
Escherichia coli [3] = test: Antibacterial activity against speE deficient Escherichia coli JW0117-1; assay type: functional
Escherichia coli [4] = test: Antibacterial activity against gshB deficient Escherichia coli JW2914-1; assay type: functional
Escherichia coli [5] = test: Antibacterial activity against gspS deficient Escherichia coli JW2956-1; assay type: functional
Escherichia coli [6] = test: Antibacterial activity against ygiBC, yjfMC, gspS deficient Escherichia coli GD108; assay type: functional
Escherichia coli [7] = test: Antibacterial activity against tolC, speE deficient Escherichia coli GD106; assay type: functional
Escherichia coli [8] = test: Antibacterial activity against tolC, gshB deficient Escherichia coli GD107; assay type: functional
Escherichia coli [9] = test: Antibacterial activity against wild type Escherichia coli BW25113 absence of glutathione; assay type: functional
Escherichia coli [10] = test: Antibacterial activity against wild type Escherichia coli BW25113 presence of 5 mM of glutathione; assay type: functional
Escherichia coli [11] = test: Antibacterial activity against wild type Escherichia coli BW25113 presence of 10 mM of glutathione; assay type: functional
Escherichia coli [12] = test: Antibacterial activity against wild type Escherichia coli BW25113 presence of 15 mM of glutathione; assay type: functional
Escherichia coli [13] = test: Antibacterial activity against tolC deficient Escherichia coli GD100 absence of glutathione; assay type: functional
Escherichia coli [14] = test: Antibacterial activity against tolC deficient Escherichia coli GD100 presence of 5 mM of glutathione; assay type: functional
Escherichia coli [15] = test: Antibacterial activity against tolC deficient Escherichia coli GD100 presence of 10 mM of glutathione; assay type: functional
Escherichia coli [16] = test: Antibacterial activity against tolC deficient Escherichia coli GD100 presence of 15 mM of glutathione; assay type: functional, organism-based
Escherichia coli [17] = test: Antibacterial activity against kanamycin-resistant acrAB, acrEF deficient Escherichia coli W4680AE absence of glutathione; assay type: functional
Escherichia coli [18] = test: Antibacterial activity against kanamycin-resistant acrAB, acrEF deficient Escherichia coli W4680AE presence of 5 mM of glutathione; assay type: functional
Escherichia coli [19] = test: Antibacterial activity against kanamycin-resistant acrAB, acrEF deficient Escherichia coli W4680AE presence of 10 mM of glutathione; assay type: functional
Escherichia coli [20] = test: Antibacterial activity against kanamycin-resistant acrAB, acrEF deficient Escherichia coli W4680AE presence of 15 mM of glutathione; assay type: functional

Row | Compound | MIC (Escherichia coli [1]) [µg/mL] | MIC (Escherichia coli [2]) [µg/mL] | MIC (Escherichia coli [3]) [µg/mL] | MIC (Escherichia coli [4]) [µg/mL] | MIC (Escherichia coli [5]) [µg/mL] | MIC (Escherichia coli [6]) [µg/mL] | MIC (Escherichia coli [7]) [µg/mL] | MIC (Escherichia coli [8]) [µg/mL] | MIC (Escherichia coli [9]) [µg/mL] | MIC (Escherichia coli [10]) [µg/mL] | MIC (Escherichia coli [11]) [µg/mL] | MIC (Escherichia coli [12]) [µg/mL] | MIC (Escherichia coli [13]) [µg/mL] | MIC (Escherichia coli [14]) [µg/mL] | MIC (Escherichia coli [15]) [µg/mL] | MIC (Escherichia coli [16]) | MIC (Escherichia coli [17]) [µg/mL] | MIC (Escherichia coli [18]) [µg/mL] | MIC (Escherichia coli [19]) [µg/mL] | MIC (Escherichia coli [20]) [µg/mL]
1 | NCC[C@H](O)C(=O)N[C@@H]1C[C@H](N)[C@@H](O[C@H]2O[C@H](CN)[C@@H](O)[C@H](O)[C@H]2O)[C@H](O)[C@H]1O[C@H]1O[C@H](CO)[C@@H](O)[C@H](N)[C@H]1O [AMIKACIN] | 1 (≈ 1.71 µM) | 1 (≈ 1.71 µM) | 16 (≈ 27.3 µM) | 4 (≈ 6.83 µM) | 2 (≈ 3.42 µM) | 1 (≈ 1.71 µM) | 8 (≈ 13.7 µM) | 2 (≈ 3.42 µM) | – | – | – | – | – | – | – | – | – | – | – | –
2 | CC1(C)S[C@@H]2[C@H](NC(=O)[C@H](N)c3ccccc3)C(=O)N2[C@H]1C(=O)O [AMPICILLIN] | 5 (≈ 14.3 µM) | 5 (≈ 14.3 µM) | 5 (≈ 14.3 µM) | 10 (≈ 28.6 µM) | 10 (≈ 28.6 µM) | 5 (≈ 14.3 µM) | 5 (≈ 14.3 µM) | 5 (≈ 14.3 µM) | – | – | – | – | – | – | – | – | – | – | – | –
3 | CC[C@H]1OC(=O)[C@H](C)[C@@H](O[C@H]2C[C@@](C)(OC)[C@@H](O)[C@H](C)O2)[C@H](C)[C@@H](O[C@@H]2O[C@H](C)C[C@H](N(C)C)[C@H]2O)[C@](C)(O)C[C@@H](C)C(=O)[C@H](C)[C@@H](O)[C@]1(C)O [ERYTHROMYCIN] | 32 (≈ 43.6 µM) | 1 (≈ 1.36 µM) | 32 (≈ 43.6 µM) | 64 (≈ 87.2 µM) | 64 (≈ 87.2 µM) | 64 (≈ 87.2 µM) | 1 (≈ 1.36 µM) | 1 (≈ 1.36 µM) | 128 (≈ 174 µM) | 512 | 512 | 512 | 4 (≈ 5.45 µM) | 4 | 4 | Active | 4 (≈ 5.45 µM) | 4 | 8 | 32
4 | NC[C@H]1O[C@H](O[C@H]2[C@H](O)[C@@H](O[C@H]3O[C@H](CO)[C@@H](O)[C@H](N)[C@H]3O)[C@H](N)C[C@@H]2N)[C@H](O)[C@@H](O)[C@@H]1O [KANAMYCIN] | 0.78 (≈ 1.61 µM) | 0.78 (≈ 1.61 µM) | 12.5 (≈ 25.8 µM) | 6.25 (≈ 12.9 µM) | 1.56 (≈ 3.22 µM) | 1.56 (≈ 3.22 µM) | 6.25 (≈ 12.9 µM) | 3.12 (≈ 6.45 µM) | 1.56 (≈ 3.22 µM) | 25 | 50 | 50 | 1.56 (≈ 3.22 µM) | 25 | 50 | Active | – | – | – | –
5 | CCn1cc(C(=O)O)c(=O)c2cc(F)c(N3CCNCC3)cc21 [NORFLOXACIN] | 0.04 (≈ 0.125 µM) | 0.01 (≈ 0.0313 µM) | 0.02 (≈ 0.0626 µM) | 0.04 (≈ 0.125 µM) | 0.02 (≈ 0.0626 µM) | 0.01 (≈ 0.0313 µM) | 0.005 (≈ 0.0157 µM) | 0.0025 (≈ 0.00783 µM) | 0.04 (≈ 0.125 µM) | 0.16 | 0.64 | 1.28 | 0.01 (≈ 0.0313 µM) | 0.02 | 0.08 | Active | 0.005 (≈ 0.0157 µM) | 0.01 | 0.02 | 0.16
6 | CO[C@@H]1[C@@H](OC(N)=O)[C@@H](O)[C@H](Oc2ccc3c(O)c(NC(=O)c4ccc(O)c(CC=C(C)C)c4)c(=O)oc3c2C)OC1(C)C [NOVOBIOCIN] | 32 (≈ 52.2 µM) | 1 (≈ 1.63 µM) | 64 (≈ 104 µM) | 256 (≈ 418 µM) | 64 (≈ 104 µM) | 32 (≈ 52.2 µM) | 1 (≈ 1.63 µM) | 1 (≈ 1.63 µM) | – | – | – | – | – | – | – | – | – | – | – | –
7 | CN[C@@H]1[C@H](O)[C@H](NC)[C@H]2O[C@@]3(O)C(=O)C[C@@H](C)O[C@H]3O[C@@H]2[C@H]1O [SPECTINOMYCIN] | 25 (≈ 75.2 µM) | 12.5 (≈ 37.6 µM) | 25 (≈ 75.2 µM) | 25 (≈ 75.2 µM) | 25 (≈ 75.2 µM) | 25 (≈ 75.2 µM) | 25 (≈ 75.2 µM) | 12.5 (≈ 37.6 µM) | – | – | – | – | – | – | – | – | – | – | – | –
